From US20250115669A1, “FGFR1/KLB Targeting Agonistic Antigen-Binding Proteins and Conjugates Thereof with GLP-1R Agonistic Peptides” (SANOFI, priority 2020, published 2025)
Read-outs that look alike come from different tables or passages of the source. Peptide text beside a SMILES is read from it.

Key:
Format in all cases: cell-based
[1] = biological target: T1, human glucagon (GCG) receptor (Homo sapiens, UniProt P47871); experiment: HTRF cAMP assay in HEK-293 cells expressing human glucagon receptor
T1 construct: expressed in transfected cells; host or cells: PSC-HEK-293
Experimental: (§1) Each vial contained 1.8 ml cells. The vials were slowly frozen to −80° C. in isopropanol, and then transferred in liquid nitrogen for storage.
(§2) Cells were resuspended in assay buffer (cell buffer plus 2 mM IBMX) and adjusted to a cell density of 1 million cells/ml.
(§3) For measurement of cAMP generation, 5 μl cells (final 5000 cells/well) and 5 μl of test compound were added to a 384-well plate, followed by incubation for 30 min at room temperature.
(§4) The cAMP generated was determined using a kit from Cisbio Corp. based on HTRF (Homogenous Time Resolved Fluorescence). The cAMP assay was performed according to manufacturer's instructions (Cisbio).

human GIP receptor = biological target: T2, human GIP receptor (Homo sapiens, UniProt P48546); experiment: HTRF cAMP assay in HEK-293 cells expressing human GIP receptor
T2 construct: expressed in transfected cells; host or cells: PSC-HEK-293
T2 sequence (P48546 22-466): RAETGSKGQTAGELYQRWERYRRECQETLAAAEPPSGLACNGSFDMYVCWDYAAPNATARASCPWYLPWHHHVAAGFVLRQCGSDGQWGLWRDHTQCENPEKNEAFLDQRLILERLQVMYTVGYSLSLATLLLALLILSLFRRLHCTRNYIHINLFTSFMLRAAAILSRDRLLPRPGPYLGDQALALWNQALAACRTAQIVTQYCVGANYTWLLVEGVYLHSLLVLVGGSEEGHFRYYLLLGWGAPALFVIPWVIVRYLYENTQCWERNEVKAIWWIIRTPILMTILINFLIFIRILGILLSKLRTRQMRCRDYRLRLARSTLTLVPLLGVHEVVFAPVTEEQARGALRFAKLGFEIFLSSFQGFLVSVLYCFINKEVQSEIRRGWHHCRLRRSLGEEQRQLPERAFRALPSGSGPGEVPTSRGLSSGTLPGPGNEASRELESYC
Experimental: as §1, §2, §3, §4

human GLP-1 receptor = biological target: T3, human GLP-1 receptor (Homo sapiens, UniProt P43220); experiment: HTRF cAMP assay in HEK-293 cells expressing human GLP-1 receptor
T3 construct: expressed in transfected cells; host or cells: PSC-HEK-293
Experimental: as §1, §2, §3, §4

[2] = HEK-293 cells, read-out: HTRF cAMP EC50 Human GCGR
[3] = HEK-293 cells, read-out: HTRF cAMP EC50 Human GIPR
[4] = HEK-293 cells, read-out: HTRF cAMP EC50 Human GLP-1R

T1 sequence (P47871 26-477): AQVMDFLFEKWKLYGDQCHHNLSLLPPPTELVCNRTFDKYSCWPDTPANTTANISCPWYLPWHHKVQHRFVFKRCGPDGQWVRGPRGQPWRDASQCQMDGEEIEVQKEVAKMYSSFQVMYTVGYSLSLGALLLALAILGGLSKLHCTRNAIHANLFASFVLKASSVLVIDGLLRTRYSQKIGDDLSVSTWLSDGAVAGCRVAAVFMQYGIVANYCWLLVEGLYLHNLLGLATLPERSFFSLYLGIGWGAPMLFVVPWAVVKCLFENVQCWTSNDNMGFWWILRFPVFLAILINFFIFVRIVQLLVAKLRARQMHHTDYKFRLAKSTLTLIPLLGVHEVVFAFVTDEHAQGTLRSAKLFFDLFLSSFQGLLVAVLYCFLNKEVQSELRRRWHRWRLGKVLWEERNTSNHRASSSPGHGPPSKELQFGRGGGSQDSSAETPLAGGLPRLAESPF
T3 sequence (P43220 24-463): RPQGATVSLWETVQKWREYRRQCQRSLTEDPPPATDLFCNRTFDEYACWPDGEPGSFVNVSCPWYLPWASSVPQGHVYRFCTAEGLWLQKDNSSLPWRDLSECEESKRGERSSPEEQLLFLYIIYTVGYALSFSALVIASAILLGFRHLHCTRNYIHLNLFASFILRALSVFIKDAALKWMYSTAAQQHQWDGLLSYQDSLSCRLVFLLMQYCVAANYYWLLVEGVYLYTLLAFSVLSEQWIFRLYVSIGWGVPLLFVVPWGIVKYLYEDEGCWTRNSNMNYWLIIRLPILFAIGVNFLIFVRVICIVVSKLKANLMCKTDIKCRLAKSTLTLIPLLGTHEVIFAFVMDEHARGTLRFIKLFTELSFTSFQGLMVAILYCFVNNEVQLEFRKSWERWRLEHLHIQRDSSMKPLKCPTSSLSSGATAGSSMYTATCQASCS

| SMILES | EC50 [1] [nM] | EC50 (human GIP receptor) [nM] | EC50 (human GLP-1 receptor) [nM] | EC50 [1, 2] [nM] | EC50 (human GIP receptor; [3]) [nM] | EC50 (human GLP-1 receptor; [4]) [nM] |
| --- | --- | --- | --- | --- | --- | --- |
| CC[C@H](C)[C@H](NC(=O)[C@H](Cc1ccccc1)NC(=O)[C@H](CC(C)C)NC(=O)[C@H](CCC(N)=O)NC(=O)[C@@H](NC(=O)[C@H](CCCNC(=N)N)NC(=O)[C@H](CCC(=O)O)NC(=O)[C@H](CCC(=O)O)NC(=O)[C@H](CCC(=O)O)NC(=O)[C@H](CC(C)C)NC(=O)[C@H](CCC(N)=O)NC(=O)[C@H](CCCCN)NC(=O)[C@H](CO)NC(=O)[C@H](CC(C)C)NC(=O)[C@H](CC(=O)O)NC(=O)[C@H](CO)NC(=O)[C@@H](NC(=O)[C@H](Cc1ccccc1)NC(=O)[C@@H](NC(=O)CNC(=O)[C@H](CCC(=O)O)NC(=O)CNC(=O)[C@@H](N)Cc1c[nH]cn1)[C@@H](C)O)[C@@H](C)O)C(C)C)C(=O)N[C@@H](CCC(=O)O)C(=O)N[C@@H](Cc1c[nH]c2ccccc12)C(=O)N[C@@H](CC(C)C)C(=O)N[C@@H](CCCCN)C(=O)N[C@@H](C)C(=O)N[C@H](C(=O)NCC(=O)N1CCC[C@H]1C(=O)N[C@@H](CO)C(=O)N[C@@H](CO)C(=O)NCC(=O)N[C@@H](C)C(=O)N1CCC[C@H]1C(=O)N1CCC[C@H]1C(=O)N1CCC[C@H]1C(=O)N[C@@H](CO)C(N)=O)[C@@H](C)O [Ab P008] (H-HGEGTFTSDLSKQLEEERVQLFIEWLKATGPSSGAPPPS-NH2) | > 10 | > 10 | 0.0232 | – | – | – |
| CC[C@H](C)[C@H](NC(=O)[C@H](Cc1ccccc1)NC(=O)[C@H](CC(C)C)NC(=O)[C@H](CCCNC(=N)N)NC(=O)[C@@H](NC(=O)[C@H](C)NC(=O)[C@H](CCC(=O)O)NC(=O)[C@H](CCC(=O)O)NC(=O)[C@H](CCC(=O)O)NC(=O)[C@H](CC(C)C)NC(=O)[C@H](CCC(N)=O)NC(=O)[C@H](CCCCN)NC(=O)[C@H](CO)NC(=O)[C@H](CC(C)C)NC(=O)[C@H](CC(=O)O)NC(=O)[C@H](CO)NC(=O)[C@@H](NC(=O)[C@H](Cc1ccccc1)NC(=O)[C@@H](NC(=O)CNC(=O)[C@H](CCC(=O)O)NC(=O)CNC(=O)[C@H](Cc1c[nH]cn1)NC(=O)CN)[C@@H](C)O)[C@@H](C)O)C(C)C)C(=O)N[C@@H](CCC(=O)O)C(=O)N[C@@H](Cc1c[nH]c2ccccc12)C(=O)N[C@@H](CC(C)C)C(=O)N[C@@H](CCCCN)C(=O)N[C@@H](C)C(=O)NCC(=O)NCC(=O)N1CCC[C@H]1C(=O)N[C@@H](CCCCN)C(=O)N[C@@H](CCCCN)C(=O)N[C@H](C(=O)N[C@@H](CCCNC(=N)N)C(=O)N[C@@H](Cc1ccc(O)cc1)C(=O)N[C@@H](CO)C(N)=O)[C@@H](C)CC [Ab P013] (H-GHGEGTFTSDLSKQLEEEAVRLFIEWLKAGGPKKIRYS-NH2) | > 10 | > 10 | 0.0099 | – | – | – |
| CC[C@H](C)[C@H](NC(=O)[C@H](Cc1ccccc1)NC(=O)[C@H](CC(C)C)NC(=O)[C@H](CCCNC(=N)N)NC(=O)[C@@H](NC(=O)[C@H](C)NC(=O)[C@H](CCC(=O)O)NC(=O)[C@H](CCC(=O)O)NC(=O)[C@H](CCC(=O)O)NC(=O)[C@H](CC(C)C)NC(=O)[C@H](CCC(N)=O)NC(=O)[C@H](CCCCN)NC(=O)[C@H](CO)NC(=O)[C@H](CCCCN)NC(=O)[C@H](CC(=O)O)NC(=O)[C@H](CO)NC(=O)[C@@H](NC(=O)[C@H](Cc1ccccc1)NC(=O)[C@@H](NC(=O)CNC(=O)[C@H](CCC(=O)O)NC(=O)CNC(=O)[C@H](Cc1c[nH]cn1)NC(=O)CN)[C@@H](C)O)[C@@H](C)O)C(C)C)C(=O)N[C@@H](CCC(=O)O)C(=O)N[C@@H](Cc1c[nH]c2ccccc12)C(=O)N[C@@H](CC(C)C)C(=O)N[C@@H](CCCCN)C(=O)N[C@@H](C)C(=O)NCC(=O)NCC(=O)N1CCC[C@H]1C(=O)N[C@@H](CCCCN)C(=O)N[C@@H](CCCCN)C(=O)N[C@H](C(=O)N[C@@H](CCCNC(=N)N)C(=O)N[C@@H](Cc1ccc(O)cc1)C(=O)N[C@@H](CO)C(N)=O)[C@@H](C)CC [Ab P014] (H-GHGEGTFTSDKSKQLEEEAVRLFIEWLKAGGPKKIRYS-NH2; N-terminus assumed) | – | – | – | 5.4 | > 10 | 0.0105 |
| CC[C@H](C)[C@H](NC(=O)[C@H](Cc1ccccc1)NC(=O)[C@H](CC(C)C)NC(=O)[C@H](CCC(N)=O)NC(=O)[C@@H](NC(=O)[C@H](C)NC(=O)[C@H](CCC(=O)O)NC(=O)[C@H](CCC(=O)O)NC(=O)[C@H](CCC(=O)O)NC(=O)[C@H](CC(C)C)NC(=O)[C@H](CCC(N)=O)NC(=O)[C@H](CCCCN)NC(=O)[C@H](CO)NC(=O)[C@H](CC(C)C)NC(=O)[C@H](CC(=O)O)NC(=O)[C@H](CO)NC(=O)[C@@H](NC(=O)[C@H](Cc1ccccc1)NC(=O)[C@@H](NC(=O)CNC(=O)[C@H](CCC(=O)O)NC(=O)CNC(=O)[C@H](Cc1c[nH]cn1)NC(=O)CN)[C@@H](C)O)[C@@H](C)O)C(C)C)C(=O)N[C@@H](CCC(=O)O)C(=O)N[C@@H](Cc1c[nH]c2ccccc12)C(=O)N[C@@H](CC(C)C)C(=O)N[C@@H](CCCCN)C(=O)N[C@@H](C)C(=O)NCC(=O)NCC(=O)N1CCC[C@H]1C(=O)N[C@@H](CCCCN)C(=O)N[C@@H](CCCCN)C(=O)N[C@H](C(=O)N[C@@H](CCCNC(=N)N)C(=O)N[C@@H](Cc1ccc(O)cc1)C(=O)N[C@@H](CO)C(N)=O)[C@@H](C)CC [Ab P015] (H-GHGEGTFTSDLSKQLEEEAVQLFIEWLKAGGPKKIRYS-NH2; N-terminus assumed) | – | – | – | > 10 | > 10 | 0.0156 |
| CC[C@H](C)[C@H](NC(=O)[C@H](Cc1ccccc1)NC(=O)[C@H](CC(C)C)NC(=O)[C@H](CCCNC(=N)N)NC(=O)[C@@H](NC(=O)[C@H](C)NC(=O)[C@H](CCC(=O)O)NC(=O)[C@H](CCC(=O)O)NC(=O)[C@H](CCC(=O)O)NC(=O)[C@H](CC(C)C)NC(=O)[C@H](CCC(N)=O)NC(=O)[C@H](CCCCN)NC(=O)[C@H](CO)NC(=O)[C@H](CC(C)C)NC(=O)[C@H](CC(=O)O)NC(=O)[C@H](CO)NC(=O)[C@@H](NC(=O)[C@H](Cc1ccccc1)NC(=O)[C@@H](NC(=O)CNC(=O)[C@H](CCC(=O)O)NC(=O)CNC(=O)[C@H](Cc1c[nH]cn1)NC(=O)CN)[C@@H](C)O)[C@@H](C)O)C(C)C)C(=O)N[C@@H](CCC(=O)O)C(=O)N[C@@H](Cc1c[nH]c2ccccc12)C(=O)N[C@@H](CC(C)C)C(=O)N[C@@H](CCCCN)C(=O)N[C@@H](C)C(=O)NCC(=O)NCC(=O)N1CCC[C@H]1C(=O)N[C@@H](CO)C(=O)N[C@@H](CO)C(=O)NCC(=O)N[C@@H](C)C(=O)N1CCC[C@H]1C(=O)N1CCC[C@H]1C(=O)N1CCC[C@H]1C(=O)N[C@@H](CO)C(N)=O [Ab P017] (H-GHGEGTFTSDLSKQLEEEAVRLFIEWLKAGGPSSGAPPPS-NH2) | > 10 | > 10 | 0.0085 | – | – | – |
| CC[C@H](C)[C@H](NC(=O)[C@H](Cc1ccccc1)NC(=O)[C@H](CC(C)C)NC(=O)[C@H](CCCNC(=N)N)NC(=O)[C@@H](NC(=O)[C@H](C)NC(=O)[C@H](CCC(=O)O)NC(=O)[C@H](CCC(=O)O)NC(=O)[C@H](CCC(=O)O)NC(=O)[C@H](CC(C)C)NC(=O)[C@H](CCC(N)=O)NC(=O)[C@H](CCCCN)NC(=O)[C@H](CO)NC(=O)[C@H](CCCCN)NC(=O)[C@H](CC(=O)O)NC(=O)[C@H](CO)NC(=O)[C@@H](NC(=O)[C@H](Cc1ccccc1)NC(=O)[C@@H](NC(=O)CNC(=O)[C@H](CCC(=O)O)NC(=O)CNC(=O)[C@H](Cc1c[nH]cn1)NC(=O)CN)[C@@H](C)O)[C@@H](C)O)C(C)C)C(=O)N[C@@H](CCC(=O)O)C(=O)N[C@@H](Cc1c[nH]c2ccccc12)C(=O)N[C@@H](CC(C)C)C(=O)N[C@@H](CCCCN)C(=O)N[C@@H](C)C(=O)NCC(=O)NCC(=O)N1CCC[C@H]1C(=O)N[C@@H](CO)C(=O)N[C@@H](CO)C(=O)NCC(=O)N[C@@H](C)C(=O)N1CCC[C@H]1C(=O)N1CCC[C@H]1C(=O)N1CCC[C@H]1C(=O)N[C@@H](CO)C(N)=O [Ab P021] (H-GHGEGTFTSDKSKQLEEEAVRLFIEWLKAGGPSSGAPPPS-NH2) | > 10 | > 10 | 0.0276 | – | – | – |
| CC[C@H](C)[C@H](NC(=O)[C@H](CC(C)C)NC(=O)[C@H](Cc1c[nH]c2ccccc12)NC(=O)[C@H](CC(C)C)NC(=O)[C@@H](NC(=O)[C@H](Cc1ccccc1)NC(=O)[C@H](CC(C)C)NC(=O)[C@H](CCCNC(=N)N)NC(=O)[C@@H](NC(=O)[C@H](CC(C)C)NC(=O)[C@H](CCCNC(=N)N)NC(=O)[C@H](CCCCN)NC(=O)[C@H](CCC(=O)O)NC(=O)[C@H](CC(C)C)NC(=O)[C@H](CCC(N)=O)NC(=O)[C@H](CCCCN)NC(=O)[C@H](CO)NC(=O)[C@H](CCCCN)NC(=O)[C@H](CC(=O)O)NC(=O)[C@H](CO)NC(=O)[C@@H](NC(=O)[C@H](Cc1ccccc1)NC(=O)[C@@H](NC(=O)CNC(=O)[C@H](CCC(=O)O)NC(=O)CNC(=O)[C@@H](N)Cc1c[nH]cn1)[C@@H](C)O)[C@@H](C)O)C(C)C)[C@@H](C)CC)C(=O)N[C@@H](C)C(=O)NCC(=O)NCC(=O)N[C@@H](Cc1c[nH]cn1)C(=O)N[C@@H](CO)C(=O)N[C@@H](CO)C(=O)NCC(=O)N[C@@H](CCCCN)C(=O)N1CCC[C@H]1C(=O)N1CCC[C@H]1C(=O)N1CCC[C@H]1C(=O)N[C@@H](CCCCN)C(N)=O [Ab P023] (H-HGEGTFTSDKSKQLEKRLVRLFILWLIAGGHSSGKPPPK-NH2; N-terminus assumed) | – | – | – | > 10 | > 10 | 0.0017 |
